Assay results from ChEMBL document CHEMBL1909046, “DrugMatrix in vitro pharmacology data”.

Columns and labels:
Estrogen receptor = target: T1, Estrogen receptor (Homo sapiens, UniProt P03372); conditions: sf9; also: in other assays of this panel Not Active means under 50% inhibition at 10 µM
T1 sequence (P03372 whole entry): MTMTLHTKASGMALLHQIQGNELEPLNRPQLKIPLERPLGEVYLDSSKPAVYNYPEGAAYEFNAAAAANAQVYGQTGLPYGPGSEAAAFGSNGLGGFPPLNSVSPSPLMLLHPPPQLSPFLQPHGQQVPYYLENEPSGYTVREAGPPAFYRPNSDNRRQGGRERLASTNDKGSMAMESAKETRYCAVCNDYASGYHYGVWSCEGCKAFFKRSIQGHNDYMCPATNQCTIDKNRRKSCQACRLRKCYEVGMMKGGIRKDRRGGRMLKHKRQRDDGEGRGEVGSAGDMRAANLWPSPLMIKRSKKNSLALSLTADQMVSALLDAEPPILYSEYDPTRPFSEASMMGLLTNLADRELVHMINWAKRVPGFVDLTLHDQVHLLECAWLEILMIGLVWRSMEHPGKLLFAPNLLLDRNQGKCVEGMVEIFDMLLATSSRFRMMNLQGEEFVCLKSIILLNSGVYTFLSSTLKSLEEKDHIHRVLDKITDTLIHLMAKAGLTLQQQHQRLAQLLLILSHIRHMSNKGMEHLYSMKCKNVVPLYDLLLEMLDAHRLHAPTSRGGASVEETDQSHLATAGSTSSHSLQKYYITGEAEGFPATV

[1] = target: T2, C-X-C chemokine receptor type 2 (Homo sapiens, UniProt P25025); type: cell membranes, Membrane; conditions: cho-k1; also: in other assays of this panel Not Active means under 50% inhibition at 10 µM
T2 sequence (P25025 whole entry): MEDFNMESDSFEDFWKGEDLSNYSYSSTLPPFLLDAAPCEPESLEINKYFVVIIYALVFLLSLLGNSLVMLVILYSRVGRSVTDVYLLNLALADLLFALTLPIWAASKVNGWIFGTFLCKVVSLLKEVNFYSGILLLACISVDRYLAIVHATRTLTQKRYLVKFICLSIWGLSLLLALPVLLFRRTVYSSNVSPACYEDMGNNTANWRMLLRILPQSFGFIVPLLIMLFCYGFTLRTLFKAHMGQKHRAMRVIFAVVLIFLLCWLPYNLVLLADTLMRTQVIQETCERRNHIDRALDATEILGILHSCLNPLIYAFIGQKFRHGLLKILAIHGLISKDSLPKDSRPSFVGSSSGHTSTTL

Adenosine receptor A1 = target: T3, Adenosine receptor A1 (Homo sapiens, UniProt P30542); type: cell membranes, CHO, Membrane;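 also: radioligand binding assay at the adenosine A1 receptor, with DPCPX serving as the labelled ligand; in other assays of this panel Not Active means under 50% inhibition at 10 µM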
T3 sequence (P30542 whole entry): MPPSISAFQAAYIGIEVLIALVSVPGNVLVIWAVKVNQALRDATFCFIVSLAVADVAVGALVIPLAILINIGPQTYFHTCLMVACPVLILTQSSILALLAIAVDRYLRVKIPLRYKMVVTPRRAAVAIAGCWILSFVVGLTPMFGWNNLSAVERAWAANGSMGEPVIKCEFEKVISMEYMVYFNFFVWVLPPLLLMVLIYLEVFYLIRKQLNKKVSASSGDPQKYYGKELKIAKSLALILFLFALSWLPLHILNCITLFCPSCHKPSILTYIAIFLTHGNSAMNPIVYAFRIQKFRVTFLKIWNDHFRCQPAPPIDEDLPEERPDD

[2] = DRUGMATRIX: Sigma2 radioligand binding (ligand: [3H] Ifenprodil); type: cell membranes, Rattus norvegicus, Wistar, Brain, Membrane; conditions: Not Active = under 50% inhibition at 10 µM
[3] = target: Platelet-activating factor receptor (Homo sapiens, UniProt P25105); experiment: biochemical; type: tissue-based; conditions: platelet; also: in other assays of this panel Not Active means under 50% inhibition at 10 µM
Platelet-activating factor receptor, sequence (P25105 whole entry): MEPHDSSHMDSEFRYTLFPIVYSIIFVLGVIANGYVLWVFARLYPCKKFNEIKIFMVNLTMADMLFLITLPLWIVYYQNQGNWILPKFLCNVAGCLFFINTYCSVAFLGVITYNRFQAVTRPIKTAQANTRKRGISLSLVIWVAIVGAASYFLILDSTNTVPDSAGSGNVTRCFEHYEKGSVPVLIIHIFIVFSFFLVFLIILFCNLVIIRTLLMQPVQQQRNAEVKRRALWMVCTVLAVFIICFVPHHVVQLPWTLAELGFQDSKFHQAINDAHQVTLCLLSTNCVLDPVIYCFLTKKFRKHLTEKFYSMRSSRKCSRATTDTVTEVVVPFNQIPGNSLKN

[4] = target: T4, Neuropeptide Y receptor type 2 (Homo sapiens, UniProt P49146); type: cell membranes, Membrane; conditions: kan-ts; also: in other assays of this panel Not Active means under 50% inhibition at 10 µM
T4 sequence (P49146 whole entry): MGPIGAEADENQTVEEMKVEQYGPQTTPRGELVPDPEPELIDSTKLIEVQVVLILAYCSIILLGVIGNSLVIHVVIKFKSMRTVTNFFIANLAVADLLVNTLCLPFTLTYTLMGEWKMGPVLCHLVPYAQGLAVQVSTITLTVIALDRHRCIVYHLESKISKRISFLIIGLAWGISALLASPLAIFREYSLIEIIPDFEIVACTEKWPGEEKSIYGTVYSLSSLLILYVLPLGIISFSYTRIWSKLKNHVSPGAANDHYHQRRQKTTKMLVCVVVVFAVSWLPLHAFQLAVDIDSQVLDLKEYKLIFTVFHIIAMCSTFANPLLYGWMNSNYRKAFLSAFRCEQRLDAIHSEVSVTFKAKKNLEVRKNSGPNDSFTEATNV

Row | Compound | IC50 (Estrogen receptor) | IC50 [1] | IC50 (Adenosine receptor A1; cho) | IC50 [2] | Ki [2] | IC50 [3] | IC50 [4] | IC50 (Adenosine receptor A1; read-out: IC50) [µM] | Ki (Adenosine receptor A1; read-out: Ki) [µM] | Ki (Estrogen receptor) | Ki [1] | Ki (Adenosine receptor A1; cho) | Ki [3] | Ki [4]
1 | O=C(O)Cc1ccc(-c2ccccc2)cc1 [FELBINAC] | Not Active | Not Active | Not Active | Not Active | Not Active | Not Active | Not Active |  |  |  |  |  |  | 
2 | CCOC(=O)C1=C(C)NC(C)=C(C(=O)OC)C1c1cccc(Cl)c1Cl (stereo not drawn) [FELODIPINE] | Not Active | Not Active | Not Active | Not Active | Not Active | Not Active | Not Active |  |  |  |  |  |  | 
3 | CC(C(=O)O)c1ccc(-c2ccccc2)c(F)c1 (stereo not drawn) [FLURBIPROFEN] | Not Active | Not Active | Not Active | Not Active | Not Active | Not Active | Not Active |  |  |  |  |  |  | 
4 | Cc1cn[nH]c1 [FOMEPIZOLE] | Not Active | Not Active | Not Active | Not Active | Not Active | Not Active | Not Active |  |  |  |  |  |  | 
5 | NC[C@@H]1O[C@H](O[C@H]2[C@@H](O)[C@H](O[C@@H]3[C@@H](O)[C@H](N)C[C@H](N)[C@H]3O[C@H]3O[C@H](CN)[C@@H](O)[C@H](O)[C@H]3N)O[C@@H]2CO)[C@H](N)[C@@H](O)[C@@H]1O [FRAMYCETIN] | Not Active | Not Active | Not Active | Not Active | Not Active | Not Active | Not Active |  |  |  |  |  |  | 
6 | C[C@H]([C@](O)(Cn1cncn1)c1ccc(F)cc1F)S(C)(=O)=O [GENACONAZOLE] | Not Active | Not Active | Not Active | Not Active | Not Active | Not Active | Not Active |  |  |  |  |  |  | 
7 | Cc1cnc(C(=O)NCCc2ccc(S(=O)(=O)NC(=O)NC3CCCCC3)cc2)cn1 [GLIPIZIDE] | Not Active | Not Active | Not Active | Not Active | Not Active | Not Active | Not Active |  |  |  |  |  |  | 
8 | Cc1c(F)c(N2CCNC(C)C2)cc2c1c(=O)c(C(=O)O)cn2C1CC1 (stereo not drawn) [GREPAFLOXACIN] | Not Active | Not Active | Not Active | Not Active | Not Active | Not Active | Not Active |  |  |  |  |  |  | 
9 | N=C(N)N/N=C/c1c(Cl)cccc1Cl [GUANABENZ] | Not Active | Not Active | Not Active | Not Active | Not Active | Not Active | Not Active |  |  |  |  |  |  | 
10 | C/C=C\c1ccc(O)c(OC)c1 [ISOEUGENOL] | Not Active | Not Active | Not Active | Not Active | Not Active | Not Active | Not Active |  |  |  |  |  |  | 
11 | NC[C@H]1O[C@H](O[C@H]2[C@H](O)[C@@H](O[C@H]3O[C@H](CO)[C@@H](O)[C@H](N)[C@H]3O)[C@H](N)C[C@@H]2N)[C@H](O)[C@@H](O)[C@@H]1O [KANAMYCIN] | Not Active | Not Active | Not Active | Not Active | Not Active | Not Active | Not Active |  |  |  |  |  |  | 
12 | CC[C@H](C)C(=O)O[C@H]1C[C@@H](C)C=C2C=C[C@H](C)[C@H](CC[C@@H]3C[C@@H](O)CC(=O)O3)[C@H]21 [LOVASTATIN] | Not Active | Not Active |  | Not Active | Not Active | Not Active | Not Active | 26.7 | 15.6 |  |  |  |  | 
13 | CC(C(=O)O)c1ccc(CC2CCCC2=O)cc1 (stereo not drawn) [LOXOPROFEN] | Not Active | Not Active | Not Active | Not Active | Not Active | Not Active | Not Active |  |  |  |  |  |  | 
14 | CC(=O)O[C@]1(C(C)=O)CC[C@H]2[C@@H]3C=C(C)C4=CC(=O)CC[C@]4(C)[C@H]3CC[C@@]21C [MEGESTROL ACETATE] | Not Active | Not Active | Not Active | Not Active | Not Active | Not Active | Not Active |  |  |  |  |  |  | 
15 | COc1ccccc1OCC(O)COC(N)=O (stereo not drawn) [METHOCARBAMOL] | Not Active | Not Active | Not Active | Not Active | Not Active | Not Active | Not Active |  |  |  |  |  |  | 
16 | CN(Cc1cnc2nc(N)nc(N)c2n1)c1ccc(C(=O)N[C@@H](CCC(=O)O)C(=O)O)cc1 [METHOTREXATE] | Not Active | Not Active | Not Active | Not Active | Not Active | Not Active | Not Active |  |  |  |  |  |  | 
17 | COC(=O)c1ccccc1O [METHYL SALICYLATE] | Not Active | Not Active | Not Active | Not Active | Not Active | Not Active | Not Active |  |  |  |  |  |  | 
18 | C[C@]12C/C(=C/O)C(=O)C[C@@H]1CC[C@@H]1[C@@H]2CC[C@@]2(C)[C@H]1CC[C@]2(C)O [OXYMETHOLONE] | Not Active | Not Active | Not Active | Not Active | Not Active | Not Active | Not Active |  |  |  |  |  |  | 
19 | CC(C)(CO)C(O)C(=O)NCCCO (stereo not drawn) [PANTHENOL] | Not Active | Not Active | Not Active | Not Active | Not Active | Not Active | Not Active |  |  |  |  |  |  | 
20 | OCCN1CCN(CCCN2c3ccccc3Sc3ccc(Cl)cc32)CC1 [PERPHENAZINE] | Not Active | Not Active | Not Active | Not Active | Not Active | Not Active | Not Active |  |  |  |  |  |  | 
21 | CCCCC1C(=O)N(c2ccccc2)N(c2ccccc2)C1=O [PHENYLBUTAZONE] | Not Active | Not Active | Not Active | Not Active | Not Active | Not Active | Not Active |  |  |  |  |  |  | 
22 | Cc1cccc(Nc2cc(Cl)nc(SCC(=O)O)n2)c1C [PIRINIXIC ACID] | Not Active | Not Active | Not Active | Not Active | Not Active | Not Active | Not Active |  |  |  |  |  |  | 
23 | CC[C@H](C)C(=O)O[C@H]1C[C@H](O)C=C2C=C[C@H](C)[C@H](CC[C@@H](O)C[C@@H](O)CC(=O)O)[C@H]21 [PRAVASTATIN] | Not Active | Not Active | Not Active | Not Active | Not Active | Not Active | Not Active |  |  |  |  |  |  | 
24 | COBALT(II) ACETYLACETONATE | Not Active | Not Active | Not Active | Not Active | Not Active | Not Active | Not Active |  |  | Not Active | Not Active | Not Active | Not Active | Not Active
25 | INSULIN HUMAN | Not Active | Not Active | Not Active | Not Active | Not Active | Not Active | Not Active |  |  | Not Active | Not Active | Not Active | Not Active | Not Active
26 | POLYVINYL ALCOHOL | Not Active | Not Active | Not Active | Not Active | Not Active | Not Active | Not Active |  |  | Not Active | Not Active | Not Active | Not Active | Not Active
